From patent US20060194971A1, “Anethole dithiolethione and other dithiolethiones for the treatment of conditions associated with dysfunction of monoamine neruotransmission” (priority 2005, published 2006)
Where two headings read alike, the source gives them in different places.

Key:
[1] = target: T1, monoamine oxidase A (MAO-A) (Rattus norvegicus, UniProt P21396); details: upon selective and complete blockade of MAO-B activity with deprenyl
T1 sequence (P21396 1-526): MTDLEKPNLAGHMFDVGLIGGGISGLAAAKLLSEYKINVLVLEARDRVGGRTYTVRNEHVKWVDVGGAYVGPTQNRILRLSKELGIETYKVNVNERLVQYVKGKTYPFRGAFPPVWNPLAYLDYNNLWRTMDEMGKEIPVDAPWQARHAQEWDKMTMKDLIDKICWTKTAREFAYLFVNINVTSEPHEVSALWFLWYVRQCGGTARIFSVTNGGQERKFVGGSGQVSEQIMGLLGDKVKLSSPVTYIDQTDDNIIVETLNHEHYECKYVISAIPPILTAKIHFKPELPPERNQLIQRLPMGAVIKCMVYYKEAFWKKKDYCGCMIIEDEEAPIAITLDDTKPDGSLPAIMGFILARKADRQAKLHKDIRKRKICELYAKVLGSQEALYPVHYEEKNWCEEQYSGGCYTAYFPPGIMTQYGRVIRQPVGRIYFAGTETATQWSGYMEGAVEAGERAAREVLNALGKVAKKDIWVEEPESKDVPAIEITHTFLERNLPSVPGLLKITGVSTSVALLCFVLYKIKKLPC
Description: (§1) Neonatal rat striatal astroglial cells were used as a source for both MAO-A and MAO-B activity (Carlo et al., Brain Res 711, 175-183, 1996). Astroglial cells were cultured as described (Langeveld et al., Neurosci. Lett. 192, 13-16, 1995). Following one week in culture in 5% CO2/95% air and at 37° C., cells were trypsinized and sonicated in ice cold 25 mM Tris-HCl buffer (pH 7.4) containing 1 mM EDTA. Thereafter, the obtained lysates were centrifuged for 5 min at 1 0,000 g and 4° C., and aliquots of the supernatant fractions were taken for determination of MAO activity using the Amplex Red MAO assay kit (Molecular Probes, Leiden, The Netherlands), which is based on the method described by Zhou and Panchuk-Voloshina (Anal. Biochem. 253, 169-174, 1997). Measurements were performed according to the manufacturers instructions. Briefly, prior to addition of the substrate, the samples were incubated for 30 min in a 96 well plate with drugs or solvent (total volume of 50 μl). Thereafter, 50 μl Amplex Red reagent was added containing 2 U/ml horseradisch peroxidase (HRP), p-tyramine HCl (2 mM, substrate for both MAO A and MAO B (Youdim and Finberg, Biochem. Pharmacol., 41, 155-162, 1991) and Amplex red (10 mM). Under these circumstances, via MAO-catalyzed oxidation of tyramine in a HRP-coupled reaction, Amplex red is converted to fluorescent resorufin. To measure MAO activity, the time-dependent increase in resorufin formation was determined at 2 min time intervals for 30 min at room temperature in a fluorescence microplate reader (BMG Labtechnologies GmbH, Germany), using excitation at 544 nm and emission at 595 nm. […] For calculation of results, the data were corrected for background readings (i.e., in the absence of the MAO substrate tyramine), and expressed as the increase in arbitrary fluorescence units/min. Protein content was determined according to the method of Bradford et al., (Anal. Biochem. 72, 248-254, 1976), using BSA as a standard. Statistical comparisons between groups were made using a one-way analysis of variance (ANOVA) followed by a Newman-Keuls post-hoc test. P values <0.01 were considered significant.
(§2) MAO activity and effects of the drugs thereon were determined as detailed above.
(§3) Data are expressed as percentages of respective controls, and are averages of two till five independent experiments performed in triplicate.

[2] = test system: total monoamine oxidase (Σ MAO); details: for Σ MAO activity (% inhibition): solvent 0.03% DMSO only, neonatal rat striatal astroglial cell extracts
Description: as §1, §2, §3

[3] = target: T2, monoamine oxidase-B (MAO-B) (Rattus norvegicus, UniProt P19643); assay: MAO-B activity in astroglial cell extracts in the presence of clorgyline, Amplex Red MAO assay; assay type: biochemical
T2 construct: in cellular extracts obtained from cultures of neonatal rat striatal astroglial cells; endogenous in cells; host or cells: cultured neonatal rat striatal astroglial cells (supernatant of sonicated lysate)
T2 sequence (P19643 1-520): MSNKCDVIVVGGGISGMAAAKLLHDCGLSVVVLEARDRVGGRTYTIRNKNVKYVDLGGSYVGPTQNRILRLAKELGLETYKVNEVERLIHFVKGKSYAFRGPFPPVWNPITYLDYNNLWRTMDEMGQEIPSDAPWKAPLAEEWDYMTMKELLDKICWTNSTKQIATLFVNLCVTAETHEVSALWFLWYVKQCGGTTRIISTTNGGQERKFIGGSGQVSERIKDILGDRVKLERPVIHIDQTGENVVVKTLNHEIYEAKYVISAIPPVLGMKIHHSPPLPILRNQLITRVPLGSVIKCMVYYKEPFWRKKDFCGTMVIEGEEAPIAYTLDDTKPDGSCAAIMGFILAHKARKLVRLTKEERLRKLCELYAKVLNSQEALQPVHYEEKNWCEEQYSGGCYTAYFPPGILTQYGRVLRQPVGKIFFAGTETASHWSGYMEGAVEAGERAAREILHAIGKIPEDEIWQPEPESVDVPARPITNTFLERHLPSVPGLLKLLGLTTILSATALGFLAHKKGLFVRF
Description: as §1, §2, §3

MAO-B = MAO-B inhibitory activity measured at CEREP (protocol of Salach); assay type: biochemical
Description: MAO-B inhibitory activity of the compounds A1-D6 were measured at CEREP (Paris, France), according to the protocol described by J. L. Salach, Arch. Biochem. Biophys., 192, 128,1979.
MAO-B inhibitory activity of the compounds A1-D6 AS measured at CEREP (Paris, France), according to the protocol described by J. L. Salach, Arch. Biochem. Biophys., 192, 128, 1979.

[4] = read-out: MAO-B activity (% inhibition)

For `COc1ccc(-c2cc(=S)ss2)cc1` [ADT, 5-(p-methoxyphenyl)-3H-1,2-dithiole-3-thione], the “effect on MAO-A activity” value [1] was “no statistically significant effect”, the “Σ MAO activity (% inhibition)” value ([2]; 0.1 μM) was 14% and the “Σ MAO activity (% inhibition)” value ([2]; 0.3 μM) was 35%. For the same compound, the “Σ MAO activity (% inhibition)” value ([2]; 1 μM) was 60%, the “Σ MAO activity (% inhibition)” value ([2]; 3 μM) was 70% and the “Σ MAO activity (% inhibition)” value ([2]; 10 μM) was 81%. The “Σ MAO activity (% inhibition)” value ([2]; 30 μM) was 85%, the “maximal effect on total MAO activity (inhibition)” value ([2]; at a concentration of 30 μM) was about 80% and the IC50 ([2]; read-out: apparent IC50, inhibition of total astroglial MAO activity, substrate tyramine, astroglial cell extracts) was about 0.5 µM. For the same compound, the “concentration-effect relationship for MAO-B compared to inhibition of total MAO activity” value ([3]; following selective and complete blockade of MAO-A activity by clorgyline) was “identical concentration-effect relationships”, the inhibition at 0.03 µM [3, 4] was 0% and the inhibition at 0.1 µM [3, 4] was 15%. For the same compound, the inhibition at 0.3 µM [3, 4] was 40%, the inhibition at 1 µM [3, 4] was 73% and the inhibition at 3 µM [3, 4] was 89%. The inhibition at 10 µM [3, 4] was 96% and the inhibition at 30 µM [3, 4] was 100%.

With `CCCCCCOc1ccc(-c2cssc2=S)cc1` [Compound A1] the “MAO-B %-inhibition at 10^−5 M” value (MAO-B) was 100% and the melting point was 121 °C.

With `S=c1ssc(N2CCN(c3cccc4c3OCCO4)CC2)c1-c1ccccc1` [Compound B1] the “MAO-B %-inhibition at 10^−5 M” value (MAO-B) was 65%.

For `Cc1ccc(-c2c(N3CCN(c4ccccc4)CC3)ssc2=S)cc1` [Compound B3], the “MAO-B %-inhibition at 10^−5 M” value (MAO-B) was 54%.

In the case of `CCN(CC)c1ccc(C=Cc2cc(=S)ss2)cc1` [Compound C1], the “MAO-B %-inhibition at 10^−5 M” value (MAO-B) is reported as 52%.

With `S=c1cc(C=Cc2ccc3ccccc3n2)ss1` [Compound C2] the “MAO-B %-inhibition at 10^−5 M” value (MAO-B) was 56%.

In the case of `S=c1ccss1` [Compound D3T, 3H-1,2-dithiole-3-thione], the “maximally effective concentration, blockade of MAO-B activity” value ([3]; in the presence of clorgyline) is reported as 300 µM, the inhibition at 1 µM [3, 4] is reported as 2% and the inhibition at 3 µM [3, 4] is reported as 6%. The inhibition at 10 µM [3, 4] was 24%, the inhibition at 30 µM [3, 4] was 59% and the inhibition at 100 µM [3, 4] was 82%. For the same compound, the inhibition at 300 µM [3, 4] was 92%, the inhibition at 1000 µM [3, 4] was 91% and the IC50 ([3]; read-out: apparent IC50, blockade of MAO-B activity) was about 20 µM.
